Experimental data: US20140228366A1, “HETEROARYL-SUBSTITUTED PYRAZOLOPYRIDINES AND USE THEREOF AS SOLUBLE GUANYLATE CYCLASE STIMULATORS” (BAYER INTELLECTUAL PROPERTY GMBH, priority 2011, published 2014)

Experiments:
[1] = target: T1, recombinant guanylate cyclase reporter cell line (Rattus norvegicus, UniProt P19686+P20595); assay: Effect on a recombinant guanylate cyclase reporter cell line; type: cell-based
T1 construct: expressed in transfected cells; host or cells: recombinant reporter cell line
T1 sequence (P19686 1-690): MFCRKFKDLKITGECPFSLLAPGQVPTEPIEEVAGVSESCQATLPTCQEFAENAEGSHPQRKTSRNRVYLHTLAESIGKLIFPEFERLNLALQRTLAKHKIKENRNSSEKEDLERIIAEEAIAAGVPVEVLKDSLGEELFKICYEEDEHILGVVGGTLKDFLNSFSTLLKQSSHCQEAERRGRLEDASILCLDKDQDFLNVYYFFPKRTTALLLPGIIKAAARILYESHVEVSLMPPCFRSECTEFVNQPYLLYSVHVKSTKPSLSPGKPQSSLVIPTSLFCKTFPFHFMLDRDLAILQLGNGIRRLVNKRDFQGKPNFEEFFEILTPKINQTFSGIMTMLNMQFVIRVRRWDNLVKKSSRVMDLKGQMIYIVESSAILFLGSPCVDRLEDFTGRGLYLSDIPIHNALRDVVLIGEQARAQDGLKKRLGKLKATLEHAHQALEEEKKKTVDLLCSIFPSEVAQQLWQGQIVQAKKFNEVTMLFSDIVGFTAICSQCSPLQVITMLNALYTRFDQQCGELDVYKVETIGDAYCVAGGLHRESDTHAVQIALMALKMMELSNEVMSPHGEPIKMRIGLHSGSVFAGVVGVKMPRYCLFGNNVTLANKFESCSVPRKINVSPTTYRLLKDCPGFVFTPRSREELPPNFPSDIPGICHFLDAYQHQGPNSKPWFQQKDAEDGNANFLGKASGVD
T1 sequence (P20595 1-619): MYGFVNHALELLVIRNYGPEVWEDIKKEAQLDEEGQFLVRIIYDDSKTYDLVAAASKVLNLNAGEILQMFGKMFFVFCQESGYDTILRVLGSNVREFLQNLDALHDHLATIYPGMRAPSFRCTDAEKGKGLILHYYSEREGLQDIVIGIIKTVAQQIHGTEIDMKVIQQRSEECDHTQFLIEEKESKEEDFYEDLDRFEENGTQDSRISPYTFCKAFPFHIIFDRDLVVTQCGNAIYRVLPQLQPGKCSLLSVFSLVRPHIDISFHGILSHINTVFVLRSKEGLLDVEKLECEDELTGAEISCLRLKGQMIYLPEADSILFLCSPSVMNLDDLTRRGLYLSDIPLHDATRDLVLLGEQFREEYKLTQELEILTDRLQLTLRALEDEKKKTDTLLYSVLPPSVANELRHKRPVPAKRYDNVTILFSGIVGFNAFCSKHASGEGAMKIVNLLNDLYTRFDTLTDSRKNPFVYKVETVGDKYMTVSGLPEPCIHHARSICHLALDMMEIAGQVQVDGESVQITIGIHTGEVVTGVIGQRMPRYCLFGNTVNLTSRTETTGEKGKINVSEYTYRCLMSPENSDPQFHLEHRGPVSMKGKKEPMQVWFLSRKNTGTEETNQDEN
Experimental: The cellular activity of the compounds according to the invention is determined using a recombinant guanylate cyclase reporter cell line, as described in F. Wunder et al., Anal. Biochem. 339, 104-112 (2005).

[2] = Pharmacokinetic parameters following intravenous administration in rats; type: in vivo, male Wistar rats; conditions: intravenous administration of 0.3 mg/kg; for MRT / half-life: male, Wistar, rat, plasma; for half-life: terminal half life
Experimental: The pharmacokinetic parameters of the compounds of the formula (I) according to the invention are determined in male CD-1 mice, male Wistar rats and/or female beagles. The administration volume is 5 ml/kg for mice, 5 ml/kg for rats and 0.5 ml/kg for dogs. Intravenous administration is via a formulation of species-specific plasma/DMSO (99/1) in the case of mice and rats and via water/PEG400/ethanol (50/40/10 or 30/60/10) in the case of dogs. The removal of blood from rats is simplified by inserting a silicone catheter into the right Vena jugularis externa prior to substance administration. The surgical intervention takes place one day prior to the experiment with isofluran anesthesia and administration of an analgetic (atropine/rimadyl (3/1) 0.1 ml s.c.). Substance administration is as i.v. bolus in the case of mice, as i.v. bolus or via a 15-minute infusion in the case of rats and via a 15-minute infusion in the case of dogs. Removal of blood is after 0.033, 0.083, 0.17, 0.5, 1, 2, 3, 4, 6, 7 and 24 hours in the case of mice and, after a 15-minute infusion, after 0.083, 0.25, 0.28, 0.33, 0.42, 0.75, 1, 2, 3, 4, 6, 7 (or 8 in the case of Example 3) and 24 hours in the case of dogs and rats and after an i.v. bolus administration, after 0.033, 0.083, 0.17, 0.5, 1, 2, 3, 4, 6, 7 and 24 hours in the case of rats. For all species, oral administration of the dissolved substance via gavage is carried out based on a water/PEG400/ethanol formulation (50/40/10). Here, the removal of blood from rats and dogs is after 0.083, 0.17, 0.5, 0.75, 1, 2, 3, 4, 6, 7 and 24 hours. The blood is removed into heparinized tubes. The blood plasma is then obtained by centrifugation; if required, it can be stored at −20° C. until further processing.
An internal standard (ZK 228859) is added to the samples of the compounds of the formula (I) according to the invention, calibration samples and QCs, and the protein is precipitated using excess acetonitrile. After addition of an ammonium acetate buffer (0.01 M, pH 6.8) and subsequent vortexing, the mixture is centrifuged at 1000 g and the supernatant is examined by LC-MS/MS (API 4000, AB Sciex). Chromatographic separation is carried out on an Agilent 1100-HPLC. The injection volume is 10 μl. The separation column used is a Phenomenex Luna 5μ C8(2) 100A 50×2 mm, adjusted to a temperature of 40° C. A binary mobile phase gradient at 500 μl/min is used (A: 0.01M ammonium acetate buffer pH 6.8, B: 0.1% formic acid in acetonitrile): 0 min (90% A), 1 min (90% A), 3 min (10% A), 4 min (10% A), 4.50 min (90% A), 6 min (90% A). The temperature of the Turbo V ion source is 500° C. (Example 2), 400° C. (Example 3) or 450° C. (Example 6). The following MS instrument parameters are used: curtain gas 15 units (Examples 2 and 3) or 10 units (Example 6), ion spray voltage 4.8 kV, gas 1 45 units (Example 2) or 50 units (Examples 3 and 6), gas 2 35 units (Examples 2 and 6) or 40 units (Example 3), CAD gas 4 units (Examples 2 and 6) or 8 units (Example 3). The substances are quantified by peak heights or areas using extracted ion chromatograms of specific MRM experiments.
The plasma concentration/time plots determined are used to calculate the pharmacokinetic parameters such as AUC, Cmax, t112 (terminal half life), MRT (mean residence time) and CL (clearance), using the validated pharmacokinetic calculation program KinEx (Vers. 3).
Since the substance quantification is performed in plasma, it is necessary to determine the blood/plasma distribution of the substance in order to be able to adjust the pharmacokinetic parameters correspondingly. For this purpose, a defined amount of substance is incubated in heparinized whole blood of the species in question in a rocking roller mixer for 20 min. After centrifugation at 1000 g, the plasma concentration is measured (see above) and determined by calculating the quotient of the Cblood/Cplasma values.

rabbit aorta rings = assay: Vasorelaxant effect in vitro (phenylephrine-contracted aorta rings); conditions: Oryctolagus cuniculus, phenylephrine contraction, concentration reducing control contraction by 50%
Experimental: Rabbits are stunned by a blow to the neck and exsanguinated. The aorta is removed, freed from adhering tissue and divided into rings of a width of 1.5 mm. The rings are placed individually under an initial tension in 5 ml organ baths with Krebs-Henseleit solution which is at 37° C., is gassed with carbogen and has the following composition (in each case mM): sodium chloride: 119; potassium chloride: 4.8; calcium chloride dihydrate: 1; magnesium sulphate heptahydrate: 1.4; potassium dihydrogenphosphate: 1.2; sodium bicarbonate: 25; glucose: 10. The contractile force is determined with Statham UC2 cells, amplified and digitalized using A/D transducers (DAS-1802 HC, Keithley Instruments Munich), and recorded in parallel on linear recorders. To produce a contraction, phenylephrine is added to the bath cumulatively in increasing concentration. After several control cycles, the substance to be investigated is added in each further run in increasing dosage in each case, and the height of the contraction achieved is compared with the height of the contraction reached in the last preceding run. This is used to calculate the concentration needed to reduce the magnitude of the control value by 50% (IC50 value). The standard administration volume is 5 μl; the DMSO content in the bath solution corresponds to 0.1%.

Row | MEC (minimum effective concentration) [1] | AUCnorm [2] | CLblood [2] | MRT [2] | half-life [2] | IC50 (rabbit aorta rings) | Structure (SMILES)
1 | 1 µM | 13 kg·h/L | 2.17 mL/min/kg | 7.9 h | 6.1 h | 234 nM | CC1(C)C(=O)Nc2nc(-c3nn(Cc4ncccc4F)c4ncc(F)cc34)nnc21 [Example 2, 3-{5-Fluoro-1-[(3-fluoropyridin-2-yl)methyl]-1H-pyrazolo[3,4-b]pyridin-3-yl}-7,7-dimethyl-5,7-dihydro-6H-pyrrolo[2,3-e][1,2,4]triazin-6-one]
2 | 0.3 µM | 0.93 kg·h/L | 15.5 mL/min/kg | 1.3 h | 1 h | 34 nM | CC1(C)C(=O)Nc2nc(-c3nn(Cc4ncccc4F)c4ncc(F)cc34)nc(N)c21 [Example 3, 4-Amino-2-{5-fluoro-1-[(3-fluoropyridin-2-yl)methyl]-1H-pyrazolo[3,4-b]pyridin-3-yl}-5,5-dimethyl-5,7-dihydro-6H-pyrrolo[2,3-d]pyrimidin-6-one]
3 | 0.03 µM | 3.5 kg·h/L | 6.17 mL/min/kg | 5.6 h | 4.4 h | 82 nM | CC1(C)C(=O)Nc2nc(-c3nn(Cc4ncccc4F)c4ncc(F)cc34)ncc21 [Example 6, 2-{5-Fluoro-1-[(3-fluoropyridin-2-yl)methyl]-1H-pyrazolo[3,4-b]pyridin-3-yl}-5,5-dimethyl-5,7-dihydro-6H-pyrrolo[2,3-d]pyrimidin-6-one]
4 | 3.0 µM | – | – | – | – | 2230 nM | CC1(C)C(=O)Nc2nc(-c3nn(Cc4ccncc4F)c4ncc(F)cc34)nnc21 [Example 15, 3-{5-Fluoro-1-[(3-fluoropyridin-4-yl)methyl]-1H-pyrazolo[3,4-b]pyridin-3-yl}-7,7-dimethyl-5,7-dihydro-6H-pyrrolo[2,3-e][1,2,4]triazin-6-one]
5 | 0.1 µM | – | – | – | – | 196 nM | CC1(C)C(=O)Nc2nc(-c3nn(Cc4cncnc4)c4ncc(F)cc34)ncc21 [Example 18, 2-[5-Fluoro-1-(pyrimidin-5-ylmethyl)-1H-pyrazolo[3,4-b]pyridin-3-yl]-5,5-dimethyl-5,7-dihydro-6H-pyrrolo[2,3-d]pyrimidin-6-one]
6 | 0.1 µM | – | – | – | – | 361 nM | CC1(C)C(=O)Nc2nc(-c3nn(Cc4cncnc4)c4ncc(F)cc34)nnc21 [Example 19, 3-[5-Fluoro-1-(pyrimidin-5-ylmethyl)-1H-pyrazolo[3,4-b]pyridin-3-yl]-7,7-dimethyl-5,7-dihydro-6H-pyrrolo[2,3-e][1,2,4]triazin-6-one]
7 | 0.1 µM | – | – | – | – | 99 nM | CC1(C)C(=O)Nc2nc(-c3nn(Cc4cncnc4)c4ncc(F)cc34)nc(N)c21 [Example 21, 4-Amino-2-[5-fluoro-1-(pyrimidin-5-ylmethyl)-1H-pyrazolo[3,4-b]pyridin-3-yl]-5,5-dimethyl-5,7-dihydro-6H-pyrrolo[2,3-d]pyrimidin-6-one]
